Reference: patent US11180486B2, “Indolylkojyl methane analogues, process of preparation thereof and use as inhibitor of cancer cells invasion and metastasis” (Council of Scientific & Industrial Research, priority 2017, dated 2021)
Entries after “also recorded” stand apart in the source; their conditions may differ.

Assays:
Assay type in all cases: cell-based, human
TIMP-1 = experiment: Immunoblotting, expression of TIMP-1; conditions: MDA-MB-231 cells; dose dependent
Description: (§1) Immunoblotting. MDA-MB-231 and MCF7 cells (0.5×10^6) were plated in six well plates for overnight in a humidified CO2 incubator and then exposed to varying concentrations of 5 (50, 100 and 200 nM) for 24 h along with vehicle (dose dependent study) and 200 nM of 5 for various time points like; 0, 6, 12, 24 and 48 h (time dependent study). Cells were then harvested, washed with chilled PBS and lysed with lysis buffer (HEPES 1 mM, KCl 60 mM, NP-40 0.3%, EDTA 1 mM, DTT 1 mM, sodium orthovanadate 1 mM, PMSF 0.1 mM and cocktail protease inhibitor). The cell extractions were centrifuged at 12,000 rpm for 10 min at 4° C. Protein concentration was measured by the standard Bradford method. An equal amount (20 μg) of protein from each sample was subjected to SDS-PAGE, and proteins were transferred to PVDF membranes (PALL), blocked with 5% (w/v) non-fat milk in PBS containing 0.1% Tween-20, probed with relevant antibodies (1:1000 dilution) for 3 h at room temperature or overnight at 4° C., and subsequently washed and probed with species-specific secondary antibodies coupled to horseradish peroxidase. Immunoreactive proteins were detected by Enhanced Chemiluminescence Plus (Thermo) (Rah et al., 2012, PloS one, 7(9), p.e44039.).

MDA-MB-231 cells [1] = experiment: Drug potentiation, colony formation assay
Description: Colony Formation Assay. The experiment was performed according to the pre-standardized protocol (Amin et al., 2015, Mol. Carcinog). Accordingly, MDA-MB-231 cells were seeded in 6 well plates at a density of 1×10^3 cells/ well and incubated for 5 days by giving treatment with vehicle, compound 5, doxorubicin alone and/or combination of compound 5 plus doxorubicin (1:1 ratio). Cells were subsequently washed, fixed with methanol and stained with 0.2% crystal violet for 1 h. Cells were counted from atleast 3 random fields for the colony number under an inverted microscope and photographed at 20× magnifications.
Drug Potentiation Assay. Briefly, MDA-MB-231 cells were exposed to 200 nM of compound 5, 200 nM of doxorubicin alone and/or combination of both (1:1 ratio) for 48 h in cell viability (MTT) assay, for 5 days in a colony formation assay and subjected to western blotting for the expression of GRP78 and Par-4. The ability of 5 to enhance cell killing was expressed as potentiation index (PI), which was the ratio of the […]. Thus, PI>1 indicates potentiation and PI<1 indicates protection.

E-cadherin = experiment: Immunoblotting, expression of E-cadherin; conditions: MDA-MB-231 cells; dose dependent
Description: as §1

[2] = tested on: normal breast epithelial (fR2) cells; experiment: Cell viability (MTT) assay, normal cells
Description: Cell Culture and Reagents. The cell lines used in this study were procured from American Type Culture Collection (ATCC), Manassas, USA. MCF7, T47D and fR2 cells were cultured in RPMI-1640 medium, whereas the MDA-MB-231 cells were grown in Leibovitz's (L-15) medium supplemented with 10% fetal bovine serum (Gibco) and 1% penicillin/streptomycin (Sigma) in a humidified CO2 incubator (New Brunswick Galaxy 170 R) with 5% CO2. Reagents such as phenylmethylsulfonyl fluoride (PMSF), dithiothreitol (DTT), DMSO, crystal violet, and Bradford's reagent were purchased from Sigma-Aldrich. Protease inhibitor cocktail was procured from Roche. The antibodies for human GRP78, Par-4, MMP-2, MMP-9, NF-kB, E-cadherin and TIMP-1 were procured from Santa-Cruz Biotechnology. The β-actin antibody and the secondary antibodies such as anti-rabbit IgG and anti-mouse IgG were procured from Sigma-Aldrich.
Cell Viability Assay. The cell viability was determined by standard MTT assay method. […] The amount of coloured formazan derivatives formed was measured by taking optical density (OD) using a microplate reader (TECAN, Infinite M200 Pro) at 570 nm and the percentage cell viability was calculated. The IC50 values were calculated using GraphPad Prism software (Version 5.0). […]

MDA-MB-231 cells [3] = experiment: Cell scattering assay (bFGF stimulated); conditions: bFGF plus 200 nM, 48 h, vs bFGF alone
Description: (§2) Cell Scattering Assay. The procedure was followed according to the previously described method (Amin et al., 2015, Mol. Carcinog). Briefly, MDA-MB-231 and MCF7 cells were trypsinized, seeded in 6 well plates at a density of 1000 cells/well and incubated for 5 days for the formation of small colonies. On the sixth day, exhausted media was replaced by fresh media and cells were stimulated with bFGF (20 ng/mL) along with 5 (200 nM) or doxorubicin for 48 h. Cells were then washed with PBS and photographs were taken under inverted microscope at 20× magnification.

MCF7 cells = experiment: Cell scattering assay (bFGF stimulated); conditions: bFGF plus 200 nM, 48 h, vs bFGF alone
Description: as §2

CCCCCCCC(c1oc(CO)cc(=O)c1O)c1c[nH]c2ccccc12 (centres unmarked) [Compound 5, 2-{1-(1H-indol-3-yl)octyl}-3-hydroxy-6-(hydroxymethyl)-4H-pyran-4-one]
expression of TIMP-1 (TIMP-1): induced significantly
potentiation index (PI) (MDA-MB-231 cells [1]; 200 nM 5 plus 200 nM doxorubicin (1:1), 5 days, colony formation): 5.2
potentiation of the effect of doxorubicin (MDA-MB-231 cells [1]; summary statement, combination with doxorubicin in breast cancer cells): ≤ 6 fold
expression of E-cadherin (E-cadherin): induced significantly
IC50 ([2]; Homo sapiens, FR2, MTT, 44 h + 4 h, mean ± SD of three experiments): 74 µM
toxicity towards normal breast epithelial (fR2) cells ([2]; in words): non-toxic; also recorded: less/non-toxic
cell scattering inhibited (MDA-MB-231 cells [3]): 80%
cell scattering inhibited (MCF7 cells): 84.5%
